Seven compounds from PubChem BioAssay (NCI) can be followed below.

Test systems include NCI/ADR-RES ovarian; CCRF-CEM leukemia; UACC-62 melanoma; SNB-75 CNS; U251 CNS; SK-MEL-28 melanoma; SK-MEL-2 melanoma; HS 578T breast; PC-3 prostate; MALME-3M melanoma.
Common to all, as to assay: NCI tumour cell line growth inhibition, 48 h

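48-hour exposure; five concentrations; linearly interpolated endpoints. The concentration for 50% growth inhibition is given as GI50. Definition used: TGI = concentration required for complete inhibition of growth.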

As to `C[C@]12CC[C@H]3[C@@H](CCC4=CC(=O)CC[C@@]43C)[C@@H]1CC[C@@H]2c1csc(N)n1`, the GI50 with NCI/ADR-RES ovarian was 2.54 µM; in the experiment with CCRF-CEM leukemia, 4.49 µM; in the experiment on UACC-62 melanoma, 2.68 µM; in the experiment with SNB-75 CNS, 8.62 µM; with U251 CNS, 3.83 µM; in the experiment on SK-MEL-28 melanoma, 10 µM. The values for the GI50 in the experiment on SK-MEL-2 melanoma, with HS 578T breast and with PC-3 prostate were 14.5 µM, 8.84 µM and 2.88 µM, respectively. The TGI with NCI/ADR-RES ovarian is 22.4 µM; with CCRF-CEM leukemia, 49 µM; in the experiment with UACC-62 melanoma, 17.8 µM; in the experiment with SNB-75 CNS, 24.2 µM; in the experiment with U251 CNS, 19 µM; in the experiment with SK-MEL-28 melanoma, 26 µM. Further, the results for the TGI in the experiment with SK-MEL-2 melanoma, in the experiment on HS 578T breast and in the experiment on PC-3 prostate were 32.7 µM, 35.8 µM and 47.1 µM, respectively.

`COCC([C@@H](O)C(O)C(=O)NCC[C@@H](C)c1nc(/C=C/CC2OC3(C[C@H](O)C2C)OC(C(C[C@H](O)C(C)[C@H](O)C(C)/C=C(C)/C(C)=C/C=C/C(C)=C/C#N)OC)[C@@H](OP(=O)(O)O)C3(C)C)co1)N(C)C` (some centres undefined): the TGI in the experiment on NCI/ADR-RES ovarian was 0.00258 µM; in the experiment on UACC-62 melanoma it was 0.000341 µM; in the experiment on SNB-75 CNS, 0.000327 µM; in the experiment on U251 CNS it was 0.000332 µM; with SK-MEL-28 melanoma, 0.000323 µM; in the experiment on SK-MEL-2 melanoma, 0.000333 µM. Moreover, the TGI with HS 578T breast was found to be 0.000391 µM; in the experiment with MALME-3M melanoma, 0.000316 µM; with PC-3 prostate, 0.000321 µM.

With `CCCCCCCCCCCC[N+]1(CCCCCCCCCCCC)CCCC(C)C1` (centres undefined), the GI50 is 4.41 µM with NCI/ADR-RES ovarian; 0.244 µM in the experiment on UACC-62 melanoma; 0.349 µM with SNB-75 CNS; 0.327 µM in the experiment with U251 CNS; 0.487 µM in the experiment with SK-MEL-28 melanoma; 0.472 µM in the experiment on HS 578T breast. Also, in the experiment on PC-3 prostate, the GI50 is 0.167 µM. Also, the TGI was greater than 100 µM with NCI/ADR-RES ovarian; 1.27 µM in the experiment with UACC-62 melanoma; 1.63 µM with SNB-75 CNS; 1.29 µM with U251 CNS; 1.73 µM in the experiment on SK-MEL-28 melanoma; 2.2 µM in the experiment on HS 578T breast. In the experiment on PC-3 prostate, this compound yielded a TGI of 0.536 µM.

Take `O=C1CC(c2ccccc2)Oc2ccccc21` (centres undefined): the TGI is greater than 100 µM in the experiment with NCI/ADR-RES ovarian; 57.4 µM with CCRF-CEM leukemia; greater than 100 µM with UACC-62 melanoma; greater than 100 µM with SNB-75 CNS; greater than 100 µM in the experiment on U251 CNS; greater than 100 µM in the experiment on SK-MEL-28 melanoma. In addition, the TGI in the experiment with SK-MEL-2 melanoma is 86.7 µM; in the experiment on HS 578T breast, greater than 100 µM; in the experiment with PC-3 prostate, greater than 100 µM.

For the compound `COc1ccc(C(=O)c2cc(OC)c(OC)c(OC)c2OC)cc1O`, the GI50 in the experiment on NCI/ADR-RES ovarian is 1.97 µM; with UACC-62 melanoma, 4.3 µM; in the experiment with SNB-75 CNS, 1.69 µM; in the experiment with U251 CNS, 3.61 µM; in the experiment on SK-MEL-28 melanoma, 6.42 µM; with SK-MEL-2 melanoma it was 4.28 µM. Besides, the GI50 in the experiment on HS 578T breast was 3.41 µM; in the experiment with MALME-3M melanoma, 4.49 µM; with PC-3 prostate, 4.06 µM. Further, the TGI is 7.09 µM with NCI/ADR-RES ovarian; greater than 100 µM in the experiment with UACC-62 melanoma; 5.77 µM in the experiment with SNB-75 CNS; greater than 100 µM with U251 CNS; greater than 100 µM in the experiment with SK-MEL-28 melanoma; greater than 100 µM in the experiment on SK-MEL-2 melanoma. The TGI in the experiment on HS 578T breast, in the experiment with MALME-3M melanoma and in the experiment on PC-3 prostate was greater than 100 µM throughout.

For `COC(=O)OC1C(O[C@H]2C[C@H]3[C@@H]4CC=C5C[C@@H](O)CC[C@]5(C)[C@H]4CC[C@]3(C)[C@H]2[C@H](C)C(=O)CCC(C)C)OCC(O)C1OC1OCC(O)C(O)C1OC(=O)c1ccc(OC)cc1` (some centres undefined), the GI50 with NCI/ADR-RES ovarian is greater than 27.5 µM; in the experiment on UACC-62 melanoma, 0.00621 µM; in the experiment with SNB-75 CNS it was less than 0.00275 µM; in the experiment on U251 CNS, 0.00297 µM; in the experiment on SK-MEL-28 melanoma, 0.0043 µM; in the experiment with SK-MEL-2 melanoma, 0.00538 µM. Further, the figures for the GI50 in the experiment with HS 578T breast, in the experiment on MALME-3M melanoma and in the experiment with PC-3 prostate were less than 0.00275 µM, 0.0184 µM and 0.00436 µM, respectively. The TGI in the experiment on NCI/ADR-RES ovarian was greater than 27.5 µM; in the experiment with UACC-62 melanoma, 0.0158 µM; in the experiment with SNB-75 CNS it was 3.77 µM; in the experiment with U251 CNS, 3.91 µM; with SK-MEL-28 melanoma, 0.0161 µM; in the experiment with SK-MEL-2 melanoma it was 0.0855 µM. For the same compound, the values for the TGI with HS 578T breast, in the experiment on MALME-3M melanoma and with PC-3 prostate were 0.0416 µM, 0.769 µM and 0.29 µM, respectively.

`CCNc1nc(O)c(/C=C2\C=Nc3ncccc32)s1`: the GI50 with NCI/ADR-RES ovarian is 10.5 µM; with CCRF-CEM leukemia, 3.59 µM; in the experiment with UACC-62 melanoma it was 3.01 µM; in the experiment on SNB-75 CNS it was 1.92 µM; with U251 CNS it was 2.6 µM; with SK-MEL-28 melanoma it was 2.72 µM. For the same compound, the GI50 in the experiment on SK-MEL-2 melanoma was 3.04 µM; in the experiment with HS 578T breast, 2.95 µM; in the experiment on PC-3 prostate, 4.04 µM. Moreover, the TGI in the experiment on NCI/ADR-RES ovarian was greater than 100 µM; in the experiment with CCRF-CEM leukemia, greater than 100 µM; with UACC-62 melanoma, 9.11 µM; in the experiment on SNB-75 CNS, 4.25 µM; with U251 CNS, 8.24 µM; in the experiment with SK-MEL-28 melanoma, 13.8 µM. In addition, the TGI with SK-MEL-2 melanoma is 8.93 µM; with HS 578T breast, 8.29 µM; with PC-3 prostate, greater than 100 µM.
